# Reference: PubChem BioAssay (NCI)
#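 Test compounds were applied to cells in 96-well plates for 48 hours at 5 doses. GI50 is the concentration that inhibits growth by half. Definition used: TGI = concentration required for complete inhibition of growth.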
# How the values were obtained:
# Assay in all cases: growth of human tumour cells (NCI), 48 h
# [1] = test system: BT-549 breast
# [2] = test system: MCF7 breast
# [3] = test system: SK-OV-3 ovarian
# [4] = test system: T-47D breast
# [5] = test system: MALME-3M melanoma
# [6] = test system: HCT-15 colon
# [7] = test system: HOP-92 NSCLC
# [8] = test system: TK-10 renal
# [9] = test system: M14 melanoma
# [10] = test system: MOLT-4 leukemia
Structure (SMILES),GI50 [1],TGI [1],GI50 [2],TGI [2],GI50 [3],TGI [3],GI50 [4],TGI [4],GI50 [5],TGI [5],GI50 [6],TGI [6],GI50 [7],TGI [7],GI50 [8],TGI [8],GI50 [9],TGI [9],GI50 [10],TGI [10]
COc1ccc(-c2nn(-c3cccc(Cl)c3)cc2-c2nc(N)[nH]c(=O)c2C#N)cc1,3.54 µM,22.4 µM,3.54 µM,28.5 µM,6.56 µM,30.7 µM,6.05 µM,32.2 µM,5.83 µM,40.6 µM,5.07 µM,> 100 µM,1.65 µM,12.2 µM,13.5 µM,53.9 µM,3.25 µM,34 µM,4.8 µM,39.8 µM
CS(=O)(=O)CS(=O)(=O)OCCCl,,181 µM,,1420 µM,,423 µM,,1530 µM,,1270 µM,,1090 µM,,824 µM,,1280 µM,,770 µM,,629 µM
Nc1c(C(=O)Nc2ccccc2Cl)sc2nc3c(cc12)C(=O)CCC3,> 100 µM,> 100 µM,0.494 µM,> 100 µM,0.782 µM,> 50.5 µM,> 40 µM,> 100 µM,2.78 µM,> 100 µM,0.626 µM,> 100 µM,7.29 µM,> 100 µM,78.6 µM,> 100 µM,1.06 µM,> 100 µM,> 100 µM,> 100 µM
CN1C(NNC(=O)c2cccnc2)=NS(=O)(=O)c2cc(Cl)ccc21,> 100 µM,> 100 µM,> 100 µM,> 100 µM,> 100 µM,> 100 µM,> 100 µM,> 100 µM,> 100 µM,> 100 µM,> 100 µM,> 100 µM,> 100 µM,> 100 µM,> 100 µM,> 100 µM,> 100 µM,> 100 µM,> 100 µM,> 100 µM
CC1(C)N=C(N)N=C(N)N1c1cccc(OCCOc2cccc([N+](=O)[O-])c2)c1,7.18 µM,> 100 µM,2.23 µM,> 100 µM,> 56.4 µM,> 100 µM,12.6 µM,> 100 µM,7.54 µM,> 100 µM,> 100 µM,> 100 µM,3.51 µM,73.5 µM,66 µM,> 100 µM,14.4 µM,> 100 µM,2.45 µM,> 100 µM
O=C1C=C(Nc2ccc(S(=O)(=O)Nc3nccs3)cc2)c2ccccc2C1=O,,40.8 µM,,36.1 µM,,> 100 µM,,> 100 µM,,48.7 µM,,79.4 µM,,> 100 µM,,> 100 µM,,42.8 µM,,> 100 µM
NCCCn1c2c(c3ccccc3c1=O)C(=O)c1ccccc1-2,1.47 µM,12.4 µM,0.0728 µM,18 µM,0.133 µM,1.94 µM,0.162 µM,0.951 µM,0.156 µM,1.46 µM,0.0762 µM,1.38 µM,2.6 µM,19.1 µM,0.425 µM,4.19 µM,0.628 µM,3.47 µM,0.0363 µM,0.7 µM
Oc1ccc(/C=C/c2cc(O)cc3c2C(c2cc(O)cc(O)c2)C(c2ccc(O)c(O)c2)O3)cc1 (stereo not given),,64.4 µM,,> 100 µM,,> 100 µM,,> 100 µM,,80.6 µM,,45.4 µM,,> 100 µM,,> 100 µM,,> 100 µM,,33.5 µM
Cc1cc(NCCCCNc2ccnc3cc(Cl)ccc23)nc(Nc2ccc(C(=O)N3CCCCC3)cc2)n1,1.69 µM,3.21 µM,1.48 µM,4.34 µM,2.78 µM,6.13 µM,2.52 µM,5.94 µM,,,1.28 µM,3.13 µM,1.21 µM,3.03 µM,2.11 µM,4.13 µM,0.197 µM,0.383 µM,1.71 µM,7.13 µM
Cc1c2c(C(N)=O)nccc2c(C)c2c1c1ccccc1n2Cc1ccccc1,,90.4 µM,,> 100 µM,,47.6 µM,,79.5 µM,,,,44.2 µM,,25.1 µM,,35.5 µM,,> 100 µM,,62.9 µM
C=C1C(O)C2C(=C(C)C13CC3)C(=O)C(C)(C)C2OC (stereo not given),> 100 µM,> 100 µM,69.4 µM,> 100 µM,> 100 µM,> 100 µM,23.1 µM,67.8 µM,> 100 µM,> 100 µM,> 100 µM,> 100 µM,24.8 µM,> 100 µM,> 100 µM,> 100 µM,,,38.6 µM,> 100 µM
